In the supplement of paper PMC10307832:

How the values were obtained:
Experiment in all cases: relative viability (nuclei count vs DMSO), 5 days (fraction); higher = more cells survive
[1] = compound: Oc1nc(-c2ccc(C(F)(F)F)cc2)nc2c1CSCC2 [XAV939]
Method in brief: (§1)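 Viability here means nuclei in treated wells divided by nuclei in vehicle wells, reported as the median across plates. Only plates with control CV below 25% and at least one doubling passed. Lung cancer cell lines in 1536-well plates were exposed to five √10-spaced library-drug doses for 5 days and counted from 4× Hoechst images in MetaXpress.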

[2] = compound: CCCCCCCC[C@H]1[C@@H](C(=C)C(=O)O1)C(=O)O [C-75]
Method in brief: as §1

[3] = compound: CC1(C)CCC(c2ccc(Cl)cc2)=C(CN2CCN(c3ccc(C(=O)NS(=O)(=O)c4ccc(N[C@H](CCN5CCOCC5)CSc5ccccc5)c(S(=O)(=O)C(F)(F)F)c4)cc3)CC2)C1 [Navitoclax]
Method in brief: as §1

[4] = compound: NC(=O)Nc1cc(-c2cccc(F)c2)sc1C(=O)N[C@H]1CCCNC1 [AZD7762]
Method in brief: as §1

[5] = compound: O=C(O)c1ccc(-c2c[nH]c3ncc(-c4ccccc4)cc23)cc1C1CCCC1
Method in brief: as §1

Work on NCI-H838 yielded a relative viability ([1]; 0.08 µM) of 0.965, a relative viability ([1]; 0.253 µM) of 0.892 and a relative viability ([1]; 0.8 µM) of 0.805. It also gave a relative viability ([1]; 2.53 µM) of 0.624, a relative viability ([2]; 0.08 µM) of 0.989 and a relative viability ([2]; 0.253 µM) of 0.82. The relative viability ([2]; 0.8 µM) was 0.941, the relative viability ([2]; 2.53 µM) was 0.867 and the relative viability ([2]; 8 µM) was 0.895. The relative viability ([3]; 0.005 µM) was 0.964, the relative viability ([3]; 0.01581 µM) was 1.02 and the relative viability ([3]; 0.05 µM) was 1.08. The relative viability ([3]; 0.1581 µM) was 1, the relative viability ([3]; 0.5 µM) was 0.97 and the relative viability ([3]; 0.5 µM, anchor plate) was 1.21. For the same cell line, the relative viability ([4]; 0.01 µM) was 1.04, the relative viability ([4]; 0.03162 µM) was 0.982 and the relative viability ([4]; 0.1 µM) was 1.01. For the same cell line, the relative viability ([4]; 0.2 µM, anchor plate) was 0.944, the relative viability ([4]; 0.3162 µM) was 0.942 and the relative viability ([4]; 1 µM) was 0.599. It also gave a relative viability ([5]; 0.04 µM) of 0.972, a relative viability ([5]; 0.1265 µM) of 1.16 and a relative viability ([5]; 0.4 µM) of 0.994. For the same cell line, the relative viability ([5]; 1.265 µM) was 0.926.

For NCI-H1734, the relative viability ([1]; 0.08 µM) was 1.03, the relative viability ([1]; 0.253 µM) was 0.913 and the relative viability ([1]; 0.8 µM) was 0.92. For the same cell line, the relative viability ([1]; 2.53 µM) was 0.842, the relative viability ([2]; 0.08 µM) was 1.09 and the relative viability ([2]; 0.253 µM) was 0.949. For the same cell line, the relative viability ([2]; 0.8 µM) was 0.956, the relative viability ([2]; 2.53 µM) was 0.632 and the relative viability ([2]; 8 µM) was 0.766. It also gave a relative viability ([3]; 0.005 µM) of 1.03, a relative viability ([3]; 0.01581 µM) of 1.08 and a relative viability ([3]; 0.1581 µM) of 0.888. It also gave a relative viability ([3]; 0.5 µM) of 1.01, a relative viability ([3]; 0.5 µM, anchor plate) of 0.859 and a relative viability ([4]; 0.01 µM) of 0.977. The relative viability ([4]; 0.03162 µM) was 1.12, the relative viability ([4]; 0.1 µM) was 1.02 and the relative viability ([4]; 0.2 µM, anchor plate) was 0.575. The relative viability ([4]; 0.3162 µM) was 0.856, the relative viability ([4]; 1 µM) was 0.507 and the relative viability ([5]; 0.04 µM) was 0.985. It also gave a relative viability ([5]; 0.1265 µM) of 1.11, a relative viability ([5]; 0.4 µM) of 0.939 and a relative viability ([5]; 1.265 µM) of 0.764.

Cell Line LCLC-103H has a relative viability ([1]; 0.08 µM) of 1.08, a relative viability ([1]; 0.253 µM) of 0.914 and a relative viability ([1]; 0.8 µM) of 0.92. It also gave a relative viability ([1]; 2.53 µM) of 0.831, a relative viability ([2]; 0.08 µM) of 0.919 and a relative viability ([2]; 0.253 µM) of 0.998. For the same cell line, the relative viability ([2]; 0.8 µM) was 0.909, the relative viability ([2]; 2.53 µM) was 0.788 and the relative viability ([2]; 8 µM) was 1.03. It also gave a relative viability ([3]; 0.005 µM) of 1.02, a relative viability ([3]; 0.01581 µM) of 1.03 and a relative viability ([3]; 0.05 µM) of 0.83. For the same cell line, the relative viability ([3]; 0.1581 µM) was 1.04, the relative viability ([3]; 0.5 µM) was 1.05 and the relative viability ([4]; 0.01 µM) was 1.03. It also gave a relative viability ([4]; 0.03162 µM) of 0.974, a relative viability ([4]; 0.1 µM) of 1.02 and a relative viability ([4]; 0.2 µM, anchor plate) of 0.796. It also gave a relative viability ([4]; 0.3162 µM) of 0.907, a relative viability ([4]; 1 µM) of 0.992 and a relative viability ([5]; 0.04 µM) of 1.01. It also gave a relative viability ([5]; 0.1265 µM) of 1.08, a relative viability ([5]; 0.4 µM) of 0.991 and a relative viability ([5]; 1.265 µM) of 1.09.

Work on BEN yielded a relative viability ([1]; 0.08 µM) of 1.01, a relative viability ([1]; 0.253 µM) of 0.869 and a relative viability ([1]; 0.8 µM) of 0.897. It also gave a relative viability ([1]; 2.53 µM) of 0.835, a relative viability ([2]; 0.08 µM) of 1.11 and a relative viability ([2]; 0.253 µM) of 1.02. It also gave a relative viability ([2]; 0.8 µM) of 0.898, a relative viability ([2]; 2.53 µM) of 0.756 and a relative viability ([2]; 8 µM) of 0.817. It also gave a relative viability ([3]; 0.005 µM) of 0.973, a relative viability ([3]; 0.01581 µM) of 1.12 and a relative viability ([3]; 0.05 µM) of 0.839. The relative viability ([3]; 0.1581 µM) was 0.942, the relative viability ([4]; 0.01 µM) was 1.05 and the relative viability ([4]; 0.03162 µM) was 0.963. It also gave a relative viability ([4]; 0.1 µM) of 0.958, a relative viability ([4]; 0.2 µM, anchor plate) of 0.743 and a relative viability ([4]; 0.3162 µM) of 0.907. It also gave a relative viability ([4]; 1 µM) of 0.873, a relative viability ([5]; 0.04 µM) of 0.931 and a relative viability ([5]; 0.1265 µM) of 1.08. For the same cell line, the relative viability ([5]; 0.4 µM) was 1 and the relative viability ([5]; 1.265 µM) was 0.935.

Work on NCI-H2405 yielded a relative viability ([1]; 0.08 µM) of 1.03, a relative viability ([1]; 0.253 µM) of 0.978 and a relative viability ([1]; 0.8 µM) of 0.966. For the same cell line, the relative viability ([1]; 2.53 µM) was 0.993, the relative viability ([2]; 0.08 µM) was 1.01 and the relative viability ([2]; 0.253 µM) was 0.737. For the same cell line, the relative viability ([2]; 0.8 µM) was 0.948, the relative viability ([2]; 2.53 µM) was 0.872 and the relative viability ([2]; 8 µM) was 1.07. It also gave a relative viability ([3]; 0.005 µM) of 0.984, a relative viability ([3]; 0.01581 µM) of 1.11 and a relative viability ([3]; 0.05 µM) of 0.996. It also gave a relative viability ([3]; 0.1581 µM) of 1.03, a relative viability ([3]; 0.5 µM) of 0.93 and a relative viability ([3]; 0.5 µM, anchor plate) of 0.845. The relative viability ([4]; 0.01 µM) was 1.02, the relative viability ([4]; 0.03162 µM) was 1.11 and the relative viability ([4]; 0.1 µM) was 1.02. It also gave a relative viability ([4]; 0.2 µM, anchor plate) of 0.763, a relative viability ([4]; 0.3162 µM) of 0.953 and a relative viability ([4]; 1 µM) of 0.585. For the same cell line, the relative viability ([5]; 0.04 µM) was 0.998, the relative viability ([5]; 0.1265 µM) was 1.13 and the relative viability ([5]; 0.4 µM) was 0.977. For the same cell line, the relative viability ([5]; 1.265 µM) was 0.741.

Cell Line ABC-1 has a relative viability ([1]; 0.08 µM) of 0.927, a relative viability ([1]; 0.253 µM) of 0.847 and a relative viability ([1]; 0.8 µM) of 0.677. For the same cell line, the relative viability ([1]; 2.53 µM) was 0.568, the relative viability ([2]; 0.08 µM) was 0.904 and the relative viability ([2]; 0.253 µM) was 0.864. For the same cell line, the relative viability ([2]; 0.8 µM) was 0.917, the relative viability ([2]; 2.53 µM) was 0.733 and the relative viability ([2]; 8 µM) was 0.676. The relative viability ([3]; 0.005 µM) was 0.833, the relative viability ([3]; 0.01581 µM) was 0.977 and the relative viability ([3]; 0.05 µM) was 0.846. The relative viability ([3]; 0.1581 µM) was 0.984, the relative viability ([3]; 0.5 µM) was 0.976 and the relative viability ([4]; 0.01 µM) was 0.975. The relative viability ([4]; 0.03162 µM) was 0.985, the relative viability ([4]; 0.1 µM) was 0.956 and the relative viability ([4]; 0.2 µM, anchor plate) was 0.809. The relative viability ([4]; 0.3162 µM) was 0.532, the relative viability ([4]; 1 µM) was 0.384 and the relative viability ([5]; 0.04 µM) was 0.801. It also gave a relative viability ([5]; 0.1265 µM) of 1.16, a relative viability ([5]; 0.4 µM) of 0.861 and a relative viability ([5]; 1.265 µM) of 0.936.

In the case of 201T, the relative viability ([1]; 0.08 µM) is reported as 0.96, the relative viability ([1]; 0.253 µM) is reported as 0.808 and the relative viability ([1]; 0.8 µM) is reported as 0.762. The relative viability ([1]; 2.53 µM) was 0.846, the relative viability ([2]; 0.08 µM) was 1.02 and the relative viability ([2]; 0.253 µM) was 1.16. It also gave a relative viability ([2]; 0.8 µM) of 0.987, a relative viability ([2]; 2.53 µM) of 0.917 and a relative viability ([2]; 8 µM) of 0.993. For the same cell line, the relative viability ([3]; 0.005 µM) was 1.06, the relative viability ([3]; 0.01581 µM) was 1.14 and the relative viability ([3]; 0.05 µM) was 0.974. It also gave a relative viability ([3]; 0.1581 µM) of 0.957, a relative viability ([3]; 0.5 µM) of 1.04 and a relative viability ([3]; 0.5 µM, anchor plate) of 1.19. It also gave a relative viability ([4]; 0.01 µM) of 0.937, a relative viability ([4]; 0.03162 µM) of 1.01 and a relative viability ([4]; 0.1 µM) of 1.02. It also gave a relative viability ([4]; 0.2 µM, anchor plate) of 0.596, a relative viability ([4]; 0.3162 µM) of 0.92 and a relative viability ([4]; 1 µM) of 0.878. The relative viability ([5]; 0.04 µM) was 0.997, the relative viability ([5]; 0.1265 µM) was 1.05 and the relative viability ([5]; 0.4 µM) was 0.948. For the same cell line, the relative viability ([5]; 1.265 µM) was 1.
